pIC50: −log10 of the molar value. Read-outs that look alike come from different tables or passages of the source.
Columns and labels:
[1] = system: Zika virus-infected BHK cells; assay: Anti-Zika (ZIKV) virus activity test, CellTiter-Glo cell viability; type: cell-based, Zika virus SZ-SMGC-01 strain; conditions: 100 TCID50 virus per well, 9 days at 37° C.
Description: (1) Anti-Zika (ZIKV) Virus Activity Test
Test object: Zika virus-infected BHK cells
Testing Method: • (1) BBHK cells (preserved by the Academy of Military Medical Sciences) were inoculated into a 96-well plate at a concentration of 5×10^3 cells/well, and the cell culture medium was DMEM medium (purchased from Gibco Company, Cat. No. 11995065) containing 10% FBS (purchased from Gibco, Cat. No. 16000044), the plate was placed in a CO2 incubator, and incubated at 37° C. for 24 hours. • (2) The original medium in the 96-well plate was discarded, 100 μL of DMEM medium (purchased from Gibco, Cat. No. 11995065) containing 2% FBS (purchased from Gibco, Cat. No. 16000044) was taken and added into the cells. Then, the stock solution of the compound to be tested was serially diluted with the above-mentioned DMEM medium to 800 μM, 266.67 μM, 88.89 μM, 29.63 μM, 9.88 μM, 3.29 μM, 1.10 μM, 0.37 μM, and 50 μL was added to the cell culture plate. The stock solution of positive compound NITD008 (purchased from MCE Company, Cat. No. HY-12957) was serially diluted with the above DMEM medium to 80 μM, 26.67 μM, 8.89 μM, 2.96 μM, 0.99 μM, 0.33 μM, 0.11 μM, 0.04 μM, and 50 μL was added to the cell culture plate. Finally, 50 μL of Zika virus SZ-SMGC-01 strain (preserved by the Academy of Military Medical Sciences) diluted in DMEM medium containing 2% FBS was added to the cells, each well contained 100 TCID50 of the virus. The final concentration of the compound to be tested was 0.25 times the pretreatment concentration, that was, the initial concentration was 200 μM, and dilution was carried out by 3-fold series, so that the final concentrations of the compound to be tested were: 200 μM, 66.67 μM, 22.22 μM, 7.41 μM, 2.47 μM, 0.82 μM, 0.27 μM, 0.09 μM. The final concentrations of the positive compound were: 20 μM, 6.67 μM, 2.22 μM, 0.74 μM, 0.25 μM, 0.082 μM, 0.027 μM, 0.009 μM. Negative control (to the cell well, DMSO and culture medium were added, without drug) and positive control (to the cell well, DMSO, culture medium and virus were added, without drug) were set. The cell culture plates were incubated at 37° C. for 9 days. • (3) The Buffer and the substrate of CellTiter-Glo® Chemiluminescent Cell Viability Assay (purchased from Promega, Cat. No. G7573) were mixed in the dark to prepare a working solution. The working solution was mixed with PBS (purchased from Gibco, Cat. No. 10010049) at a ratio of 4:6. After the medium in the cell culture plate was discarded, 100 μl of detection reagent was added to each well, and the 96-well plate was shaken for 5 min with an orbital shaker to induce cell lysis. After stabilizing the signal in the dark for 2 minutes, a microplate reader (purchased from Molecular Devices, model SpectraMax M5) was used to measure the chemiluminescent units, the plate reading program was the preset program of CellTiter-Glo, and the cell viability was calculated:
Cell viability (%)=(A(drug treatment group)−A(positive control))/(A(negative control)−A(positive control))×100%
(§1) wherein, A represented the reading of the microplate reader.
(§2) Result evaluation: origin8.0 software was used to carry out the S-type curve fitting on the inhibition rate-concentration, and the IC50 value of the compound to be tested was calculated.

[2] = system: Rhinovirus (HRV-1059)-infected H1 Hela cells; assay: Anti-rhinovirus (HRV-1059) activity test, CellTiter-Glo cell viability; type: cell-based, rhinovirus HRV-1059 strain; conditions: 100 TCID50 virus per well, 6 days at 37° C., read-out: IC50 Anti-HRV (H1Hela)
From the text: (2) Anti-Rhinovirus (HRV-1059) Activity Test
Test object: Rhinovirus (HRV-1059)-infected H1 Hela cells
Testing method: • (1) H1 Hela cells (purchased from the National Experimental Cell Resource Sharing Platform, Cat. No. 3111C0001CCC000344) were inoculated into a 96-well plate at a concentration of 1.5×10^4 cells/well, and the cell culture medium was DMEM medium (purchased from Gibco, Cat. No. 11995065) containing 10% FBS (purchased from Gibco, Cat. No. 16000044), the plate was placed in a CO2 incubator and incubated at 37° C. for 24 hours. • (2) The original medium in the 96-well plate was discarded, 100 μL of DMEM medium (purchased from Gibco, Cat. No. 11995065) containing 2% FBS (purchased from Gibco, Cat. No. 16000044) was taken and added into the cells. Then the stock solution of the compound to be tested was serially diluted with the above DMEM medium to 800 μM, 266.67 μM, 88.89 μM, 29.63 μM, 9.88 μM, 3.29 μM, 1.10 μM, 0.37 μM, 0.12 μM, 0.04 μM, and 50 μL was added to the cell culture plate. The stock solution of positive compound NITD008 (purchased from MCE Company, Cat. No. HY-12957) was serially diluted with the above DMEM medium to 80 μM, 26.67 μM, 8.89 μM, 2.96 μM, 0.99 μM, 0.33 μM, 0.11 μM, 0.04 μM, 0.012 μM, 0.004 μM, 50 μL was added to the cell culture plate. Finally, 50 μL of the rhinovirus HRV-1059 strain (purchased from ATCC, Cat. No. VR-482) diluted with DMEM medium containing 2% FBS was added to the cells, the amount of virus contained in each well was 100 TCID50. The final concentration of the compound to be tested was 0.25 times of the pretreatment concentration, that was, the initial concentration was 200 μM, the dilution was carried out by 3-fold series, the final concentrations of the compound to be tested were: 200 μM, 66.67 μM, 22.22 μM, 7.41 μM, 2.47 μM, 0.82 μM, 0.27 μM, 0.09 μM, 0.03 μM, 0.01 μM. The final concentrations of the positive compound were: 20 μM, 6.67 μM, 2.22 μM, 0.74 μM, 0.25 μM, 0.082 μM, 0.027 μM, 0.009 μM, 0.003 μM, 0.001 μM. Negative control (to the cell well, DMSO and medium were added, without drug) and positive control (to the cell well, DMSO, medium and virus were added, without drug) were set. The cell culture plates were incubated at 37° C. for 6 days. • (3) The Buffer and the substrate of CellTiter-Glo® Chemiluminescent Cell Viability Assay (purchased from Promega, Cat. No. G7573) was mixed in the dark to obtain a working solution. The working solution was mixed with PBS (purchased from Gibco, Cat. No. 10010049) at a ratio of 4:6. After the medium in the cell culture plate was discarded, 100 μl of detection reagent was added to each well, and the 96-well plate was shaken for 5 min with an orbital shaker to induce cell lysis. After stabilizing the signal in the dark for 2 minutes, a microplate reader (purchased from Molecular Devices, model SpectraMax M5) was used to measure the chemiluminescent units, the plate reading program was the preset program of CellTiter-Glo, and the cell viability was calculated:
Cell viability (%)=(A(drug treatment group)−A(positive control))/(A(negative control)−A(positive control))×[…]
as §1, §2

[3] = Enterovirus, HRV1059, H1-HeLa, 144 h

Row | Structure (SMILES) | pIC50 ([1]; Zika virus, BHK, 216 h) | pIC50 [2] | pIC50 [2, 3] | pIC50 [1]
1 | COC(=O)[C@@]1(N=[N+]=[N-])OC([C@H](O[Si](C)(C)C(C)(C)C)[C@H]2COC(C)(C)O2)[C@H](NC(C)=O)C(O[Si](C)(C)C(C)(C)C)C1N=[N+]=[N-] (single isomer, unassigned) [Compound 4a] | 5.85 | 5.34 |  | 
2 | CC1(C)OC[C@H](C2O[C@](N=[N+]=[N-])(C(=O)O)C(N=[N+]=[N-])C(O)[C@H]2O)O1 (stereo partly shown) [Compound 19] | < 3.70 |  | 4.61 | 
3 | COC(=O)[C@@]1(N=[N+]=[N-])OC([C@H](OC(=O)c2ccccc2)[C@@H](COC(=O)c2ccccc2)OC(=O)c2ccccc2)[C@H](NC(C)=O)C(OC(=O)c2ccccc2)C1N=[N+]=[N-] (stereo partly shown) [Compound 6a] | 4.66 |  | < 3.70 | 
4 | C#C[C@@]1(O)[C@H](O)[C@@H](CO)O[C@H]1n1ccc2c(N)ncnc21 [NITD008, reference compound] |  | 7.30 |  | 6.00
5 | COC(=O)[C@@]1(N=[N+]=[N-])OC([C@H](OC(=O)c2ccccc2)[C@@H](COC(=O)c2ccccc2)OC(=O)c2ccccc2)[C@H](NC(C)=O)C(OC(=O)c2ccccc2)C1N (stereo partly shown) [Compound 14] | 4.84 |  | < 3.70 | 
6 | COC(=O)[C@]1(N=[N+]=[N-])OC([C@H](OC(=O)c2ccccc2)[C@@H](COC(=O)c2ccccc2)OC(=O)c2ccccc2)[C@H](NC(C)=O)C(OC(=O)c2ccccc2)C1N=[N+]=[N-] (stereo partly shown) [Compound 6d] |  | < 3.70 |  | 4.99
7 | COC(=O)[C@]1(N=[N+]=[N-])OC([C@@H](COC(C)=O)OC(C)=O)[C@H](OC(C)=O)C(OC(C)=O)C1N=[N+]=[N-] (stereo partly shown) [Compound 10a] | < 3.70 |  | 4.97 | 
8 | COC(=O)[C@]1(N=[N+]=[N-])OC([C@H](OC(=O)c2ccccc2)[C@@H](COC(=O)c2ccccc2)OC(=O)c2ccccc2)[C@H](NC(C)=O)C(OC(=O)c2ccccc2)C1N=[N+]=[N-] (stereo partly shown) [Compound 6b] | 4.97 |  | < 3.70 | 
9 | COC(=O)[C@@]1(N=[N+]=[N-])OC([C@H](O[Si](C)(C)C(C)(C)C)[C@H]2COC(C)(C)O2)[C@H](NC(C)=O)C(O[Si](C)(C)C(C)(C)C)C1N=[N+]=[N-] (single isomer, unassigned) [Compound 4b] |  | 4.72 |  | 5.60
10 | CC(=O)N[C@@H]1C(OC(=O)c2ccccc2)C(N=[N+]=[N-])[C@@](N=[N+]=[N-])(C(=O)O)OC1[C@H](OC(=O)c1ccccc1)[C@@H](COC(=O)c1ccccc1)OC(=O)c1ccccc1 (stereo partly shown) [Compound 13] | 4.70 |  | 4.88 | 
11 | COC(=O)[C@@]1(N=[N+]=[N-])OC([C@H](OC(=O)c2ccccc2)[C@@H](COC(=O)c2ccccc2)OC(=O)c2ccccc2)[C@H](NC(C)=O)C(OC(=O)c2ccccc2)C1N=[N+]=[N-] (stereo partly shown) [Compound 6c] |  | < 3.70 |  | 4.96

Reference: US20230271993A1, “3-DEOXY-2-KETOALDONIC ACID NITROGEN-CONTAINING DERIVATIVE, PREPARATION METHOD THEREOF, AND USE THEREOF” (SICHUAN UNIVERSITY, priority 2020, published 2023)
